In US20230381182A1, “Biomarkers Related to Immune Checkpoint Inhibitor Therapy and Methods of Using the Same” (Senda Biosciences, Inc., priority 2020, published 2023):

Key:
[1] = tested on: CT26 cells; assay: Anti-tumor efficacy in CT26 mouse model unresponsive to anti-PD-L1 therapy; assay type: in vivo, Balb/c mice; conditions: Compound No. 30 10 mg/kg p.o. once a day over 14 days coadministered with anti-PD-L1 antibody 10 mg/kg i.p. every 3 days
Description: The anti-tumor efficacy of Compound No. 30 was studied in a CT26 mouse model which is unresponsive to anti-PD-L1 therapy only. CT26 cells were implanted subcutaneously into Balb/c mice which were then randomized and treated either with an […], an anti-PD-L1 antibody, or Compound No. 30 of Table 2 in combination with the anti-PD-L1 antibody. Compound No. 30 was dosed 10 mg/kg, p.o. once a day over 14 days and the anti-PD-L1 antibody was dosed at 10 mg/kg i.p. every 3 days.

[2] = molecular target: T1, AhR (Homo sapiens, UniProt P35869); assay: DRE-Luciferase reporter assay (HepG2-Luc); assay type: cell-based; conditions: Human HepG2 liver carcinoma AhR-Lucia reporter cells; inhibition of luciferase activity induced by AhR activating ligand at its EC50
T1 construct: endogenous in cells; host or cells: Human HepG2 liver carcinoma AhR-Lucia reporter cells (DRE-luciferase reporter stably transfected)
T1 sequence (P35869 11-848): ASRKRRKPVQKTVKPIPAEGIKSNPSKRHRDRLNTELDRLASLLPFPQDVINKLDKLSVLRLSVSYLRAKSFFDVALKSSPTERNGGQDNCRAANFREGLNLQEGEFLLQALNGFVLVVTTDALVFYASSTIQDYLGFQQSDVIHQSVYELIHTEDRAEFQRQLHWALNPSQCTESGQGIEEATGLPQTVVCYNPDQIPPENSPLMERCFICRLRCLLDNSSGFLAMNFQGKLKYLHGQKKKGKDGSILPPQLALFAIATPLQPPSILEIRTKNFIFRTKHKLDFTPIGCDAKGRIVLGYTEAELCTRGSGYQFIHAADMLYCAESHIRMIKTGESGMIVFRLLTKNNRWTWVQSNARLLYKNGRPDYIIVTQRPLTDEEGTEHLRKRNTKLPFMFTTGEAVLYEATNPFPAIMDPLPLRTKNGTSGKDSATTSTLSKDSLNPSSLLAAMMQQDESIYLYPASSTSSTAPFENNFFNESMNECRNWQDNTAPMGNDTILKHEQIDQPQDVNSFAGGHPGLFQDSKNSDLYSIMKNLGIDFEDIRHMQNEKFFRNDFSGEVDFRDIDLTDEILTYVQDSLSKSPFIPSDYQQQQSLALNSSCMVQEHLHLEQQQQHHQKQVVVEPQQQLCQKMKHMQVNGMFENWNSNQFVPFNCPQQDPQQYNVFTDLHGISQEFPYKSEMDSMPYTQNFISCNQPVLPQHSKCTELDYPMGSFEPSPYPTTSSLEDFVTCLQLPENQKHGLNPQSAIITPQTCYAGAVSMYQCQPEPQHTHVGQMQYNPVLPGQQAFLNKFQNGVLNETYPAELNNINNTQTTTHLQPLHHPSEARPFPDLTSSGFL
Description: AhR binds to dioxin responsive elements (DRE) upstream of the genes that it activates. One measure of AhR activity is activation of a reporter gene, such as luciferase, downstream of one or multiple DRE elements. Luciferase activity reflects activation and inhibition of AhR in the cells expressing this reporter. 20000 Human HepG2 liver carcinoma—AhR-Lucia reporter cells or Human HT29 colon adenocarcinoma-AhR reporter cells or other cell lines with a DRE-luciferase reporter stably transfected were plated in Eagle's Minimal Essential Medium, 10% heat-inactivated FBS, 1× non-essential amino acids Pen-Strep (10,000 U/mL) and Normocin (100 ug/mL) in plates (96-well, 384-well or other plates) and incubated overnight at 37° C. in a CO2 incubator and treated with and without AhR antagonists at a log dilution starting at 100 μM. […]
Cells were incubated for 24 or 48 hours or another time point and the supernatant was analyzed for determination of luciferase activity as a read-out of the AhR activation or inhibition. Luciferase was measured with the commercial kit QUANTI-Luc™ assay solution kit from InvivoGen following the manufacturer's instructions.
The level of luciferase with only agonist ligand added was the maximum signal while the luciferase with […] was the minimum signal. IC50 values were determined as the concentration which inhibits half of the luciferase activity.

| IC50 [2] [nM] | Structure (SMILES) | tumor volume (tumor growth curves) ([1]; p=0.039, Mann-Whitney, FIG. 4A) | tumor weight ([1]; p=0.067, Mann-Whitney, FIG. 4B) |
| --- | --- | --- | --- |
|  | C[C@H](n1cnc2c(-c3cnn(C)c3)nc(-c3ccc(Cl)cc3)cc2c1=O)C(C)(C)O [Compound No. 30, (S)-6-(4-chlorophenyl)-3-(3-hydroxy-3-methylbutan-2-yl)-8-(1-methyl-1H-pyrazol-4-yl)pyrido[3,4-d]pyrimidin-4(3H)-one] | reduction in tumor volume | reduction in tumor weight |
| < 100 | O=c1c2cc(-c3ccc(OC(F)(F)F)cc3)nc(-c3cccnc3)c2ncn1C[C@@H](O)C(F)(F)F [compound 123, (R)-8-(pyridin-3-yl)-3-(3,3,3-trifluoro-2-hydroxypropyl)-6-(4-(trifluoromethoxy)phenyl)pyrido[3,4-d]pyrimidin-4(3H)-one] |  |  |
